The values below come from patent publication US20250129102A1, “CRYSTAL FORM OF PYRIMIDINE HETEROCYCLIC COMPOUND AND PREPARATION METHOD THEREFOR” (D3 Bio (Wuxi) Co., Ltd., priority 2021, published 2025).

One may read the half-life as how long it takes for the measured level to halve.

Common to all, as to assay type: in vitro ADME
Series [1] can be described thus: Protein binding rate in plasma by equilibrium dialysis, beagle dogs. Particulars: 2 μM, equilibrium dialysis 4 hours. As for the experimental part:
Protein binding rate of the assay compound in plasma of CD-1 mice, SD rats, beagle dogs, cynomolgus monkeys and human was determined by equilibrium dialysis. Plasma samples with a compound concentration of 2 μM were prepared using plasma of the above five species, placed in a 96-well equilibrium dialysis device, and dialyzed with phosphate buffer solution at 37±1° C. for 4 hours. Warfarin was used as the control compound in this assay. The concentrations of the assay compound in plasma and dialysis buffer were determined by LC-MS/MS method.
On the technique in general: In equilibrium dialysis only unbound substance equilibrates across the membrane.

Series [2] can be described thus: In vitro stability in liver microsomes, beagle dogs. Particulars: dog, 0.5 mg/mL. The protocol: Metabolic stabilities of the assay compound in liver microsomes of CD-1 mice, SD rats, beagle dogs, cynomolgus monkeys, and human were assayed, respectively.
Two 96-well incubation plates were prepared and named T60 incubation plate and NCF60 incubation plate, respectively. 445 μL of microsomal working solutions (liver microsomal protein concentration of 0.56 mg/mL) were added to the T60 incubation plate and the NCF60 incubation plate, respectively, and then the above incubation plates were pre-incubated in a 37° C. water bath for about 10 minutes.
After the pre-incubation, 5 μL of working solutions of the assay sample or the control compound were added to the T60 incubation plate and the NCF60 incubation plate, respectively, and the mixture was mixed well. 50 μL of potassium phosphate buffer was added to each well of the NCF60 incubation plate to initiate the reaction. 180 μL of stop solution (200 ng/mL tolbutamide and 200 ng/mL labetalol in acetonitrile) and 6 uL of NADPH regeneration system working solution were added to the T0 stop plate, and 54 μL of sample was transferred from T60 incubation plate to T0 stop plate (generation of T0 sample). The reaction was initiated by adding 44 μL of NADPH regeneration system working solution to each well of the T60 incubation plate. Only 54 μL of microsome working solution, 6 uL of NADPH regeneration system working solution and 180 μL of stop solution were added to the Blank plate. Therefore, in samples of the assay compound or the control compound, the final reaction concentration of compound, testosterone, diclofenac and propafenone was 1 μM, the concentration of liver microsomes was 0.5 mg/mL, and the final reaction concentrations of DMSO and acetonitrile in the reaction system were 0.01% (v/v) and 0.99% (v/v), respectively. […] All samples were injected and analyzed by liquid chromatography-tandem mass spectrometry.
Background: Liver microsomes are a subcellular fraction often used to study metabolism.

Series [3] is described as follows: Metabolic stability in hepatocytes, cynomolgus monkeys. Particulars: cynomolgus monkey, cryopreserved hepatocytes. As for the experimental part:
Metabolic stabilities of assay compound in hepatocytes of CD-1 mice, SD rats, beagle dogs, cynomolgus monkeys, and human were assayed, respectively.
Several 96-well sample precipitation plates were prepared and named T0, T15, T30, T60, T90, T120, T0-MC, T120-MC and blank substrates, respectively. The recovery medium and incubation medium were taken out in advance and placed in a 37° C. water bath for pre-heating. Cryopreserved hepatocytes were removed from the liquid nitrogen tank and immediately immersed in a 37° C. water bath (approximately 90 seconds). After the cryopreserved hepatocytes had thawed and loosened, they were poured into a centrifuge tube containing 40 mL of recovery medium, and the tube was gently inverted to allow the cells to be resuspended in the recovery medium. The cells were centrifuged at 100×g at room temperature for 5 min, and the supernatant was removed. The hepatocytes were resuspended in an appropriate volume of incubation medium, and the cell viability was calculated by Trypan Blue staining method. 198 μL of hepatocyte suspension (0.51×10^6 cells/mL) was added to the preheated incubation plate. For the culture medium control group, 198 μL of hepatocyte-free incubation medium was added to T0-MC and T120-MC incubation plate. All incubation plates were pre-incubated in a 37° C. incubator for 10 minutes. Then 2 μL of working solutions of the assay sample and the control compound were added, respectively, and the mixture was mixed well. The incubation plate was immediately put into the shaker in the incubator, and the reaction was initiated while starting the timer. For each time point of each compound, 2 duplicate samples were prepared. The incubation conditions were 37° C., saturated humidity, and 5% CO2. […] All samples were mixed well and analyzed by LC/MS/MS.

Series [4] can be described thus: Stability in whole blood, SD rats. Particulars: 5 μM, 37° C. As for the experimental part:
(§1) Stabilities of the assay compound in whole blood of CD-1 mice, SD rats, beagle dogs and cynomolgus monkeys were assayed, respectively. On the day of the assay or the day before the assay, fresh whole blood from CD-1 mice, SD rats, beagle dogs, and cynomolgus monkeys was collected using anticoagulant EDTA-K2. Prior to the start of the assay, the whole blood was mixed with PBS in 1:1 (v: v) and the mixture was preheated in a 37° C. water bath for 10 to 20 minutes. 96-well incubation plates were prepared and named T0, T30, T60, […], respectively. In the corresponding incubation plates, including T0, T30, T60 and […] incubation plates, 2 μL of working solutions of the compound or the control compound were mixed with 98 μL of blank whole blood of mice, rats, canines, monkeys and human in duplicate. All samples were incubated in a 37° C. water bath. The final incubation concentration of the compound was 5 μM and the final incubation concentration of the control compound was 2 μM. At the end of incubation for each time point, the corresponding incubation plate was removed and 100 μL of ultrapure water was immediately added to the corresponding sample wells, and mixed well. 800 μL of a solution of 200 ng/mL tolbutamide and labetalol in acetonitrile was added to precipitate the protein. […] 150 μL of supernatant was taken out and analyzed by LC/MS/MS.

Series [5] can be described thus: Stability in whole blood, CD-1 mice. Particulars: CD-1 mice whole blood, 5 μM, 37° C. The protocol:
as §1

The structures appear in SMILES notation.

As for `C=C(F)C(=O)N1CCN(c2nc(OC[C@@]34CCCN3C[C@H](F)C4)nc3c2CO[C@H](c2c(F)c(N)cc(C)c2C(F)(F)F)C3)C[C@@H]1CC#N` [Compound of formula (I)], in series [1], the “Protein unbound rate (%)” value was found to be 3.3%. Moreover, the CLint scaled at 1 μM in series [2] was < 13.8 mL/min/kg; in series [3] (read-out: CLint(liver)) it was 185 mL/min/kg. The figures for the half-life at 1 μM in series [2] and in series [3] were > 145 min and 27 min, respectively. Moreover, in series [2] (read-out: CLint(hep)), the microsomal CLint at 1 μM was < 9.6 µL/min/mg. Moreover, the hepatocyte CLint at 1 μM in series [3] (read-out: CLint(hep)) is 51.3 µL/min/1e6 cells. Also, the “Detection of assay compound content within 240 min” value is reported as 115% in series [4] and 117% in series [5].
